Experimental data reported in article PMC5290737, “Surface mediated cooperative interactions of drugs enhance mechanical forces for antibiotic action” (Scientific Reports, 2017).

Columns and labels:
[1] = target: vancomycin-susceptible receptor (VSR); assay: Surface plasmon resonance (SPR) binding to VSR; conditions: T100 BIAcore, fit of equation (2), read-out: Ksurf SPR
Method: The SPR sensor chip functionalization procedure is summarized (see methods & materials Supplementary Information) while the measurement protocol has been described previously. In brief we used a T100 BIAcore SPR instrument in which a series of binding analyses for Van was performed. […] The corresponding SPR response signals featured an S-shaped curve, with a steep rise, then a plateau when Van concentration was increased beyond 50 μM (Fig. 7e,f). The resulting SPR differential response signals in sodium phosphate buffer solution for 0.1 μM, 0.5 μM, 2 μM, 8 μM and 128 μM were then computed using equation (2) to calculate the surface thermodynamic equilibrium dissociation constant, Ksurf of drug-target interactions.
Surface plasmon resonance (SPR) sensor chip functionalization procedure. We applied the same cantilever functionalization procedure to the SPR sensor chip functionalization. […]
The differential stress measurements obtained from cantilever chips are typically associated with multiple parameters including number of repeated measurements, concentration and the number of cantilevers where each array has eight individual cantilevers. The statistical analysis was found to be essential for replacing a vast quantity of data with numbers such as the averages and standard deviations. […]

[2] = target: vancomycin-resistant receptor (VRR); conditions: ref. 3 (Van), ref. 5 (Rist), ref. 4 (CE), supplementary references, read-out: Ksurf SPR; cited from earlier work
[3] = test system: Staphylococcus aureus, enterococcus faecalis and enterococcus faecium; parameters: method as in PMID 19369269; conditions: cited from earlier work

Question: Which Kd [1] does the source give for `CN[C@H](CC(C)C)C(=O)N[C@H]1C(=O)N[C@@H](CC(N)=O)C(=O)N[C@H]2C(=O)N[C@H]3C(=O)N[C@H](C(=O)N[C@H](C(=O)O)c4cc(O)cc(O)c4-c4cc3ccc4O)[C@H](O)c3ccc(c(Cl)c3)Oc3cc2cc(c3O[C@@H]2O[C@H](CO)[C@@H](O)[C@H](O)[C@H]2O[C@H]2C[C@](C)(N)[C@H](O)[C@H](C)O2)Oc2ccc(cc2Cl)[C@H]1O` [Van, vancomycin] here?
Answer: 1.1 ± 0.4 µM

Question: And the Kd [2]?
Answer: 526 µM

Question: What about the “time–kill kinetics” value [3] of the same compound?
Answer: 6 to 24 h
